Values quoted from earlier work as cited in patent US20010051164A1, “1-0 ALKYLGLYCEROLS FOR PHARMACEUTICAL OR VETERINARY USE FOR PRESERVING AND/OR IMPROVING SPERM” (priority 1996, published 2001).

Test system: spermatozoons of various animal species and of man

## 1-O-alkyl-2-acetyl-sn-glycero-3-phosphocholine [PAF]
Ovocytes of the rabbit and of the mouse
  power of fertilisation of ovocytes by treated spermatozoons: increases their power of fertilisation
Various animal species and man
  motor function of the spermatozoons: increases the motor function
